The target in one assay is T1, A3 receptor (Rattus norvegicus, UniProt P28647).
T1 sequence (P28647 1-320): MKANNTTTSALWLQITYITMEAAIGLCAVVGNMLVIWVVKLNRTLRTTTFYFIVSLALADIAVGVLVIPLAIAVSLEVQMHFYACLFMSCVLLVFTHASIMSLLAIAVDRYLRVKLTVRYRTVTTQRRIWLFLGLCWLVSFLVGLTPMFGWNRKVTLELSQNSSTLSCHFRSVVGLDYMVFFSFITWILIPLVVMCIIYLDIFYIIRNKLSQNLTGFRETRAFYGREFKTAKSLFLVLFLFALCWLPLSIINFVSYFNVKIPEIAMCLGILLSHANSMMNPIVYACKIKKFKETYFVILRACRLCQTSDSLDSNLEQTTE
To be noted: read-out: Affinity; cited from earlier work.

The next assay deals with P2Y receptors. Briefly: DMR optical biosensor assay, agonist efficacy. Format: cell-based, human. Conditions: quiescent A431; n=3; read-out: Apparent EC50 (P-DMR amplitude, Gq-type).
The test system of assay [1] is endogenous GPCRs in A431 cells. The experiment in a line: DMR optical biosensor profiling of GPCR agonists. Format: cell-based, human. Conditions: quiescent A431; first class = Gq-type, second = Gs-type, third = Gi-type, fourth = no significant DMR.
Assay [2] has as its target T2, protease activated receptors PAR1 and PAR2 (Homo sapiens, UniProt P25116).
T2 construct: A431 cells which endogenously express PAR1 and PAR2; endogenous in cells; host or cells: A431
T2 sequence (P25116 22-425): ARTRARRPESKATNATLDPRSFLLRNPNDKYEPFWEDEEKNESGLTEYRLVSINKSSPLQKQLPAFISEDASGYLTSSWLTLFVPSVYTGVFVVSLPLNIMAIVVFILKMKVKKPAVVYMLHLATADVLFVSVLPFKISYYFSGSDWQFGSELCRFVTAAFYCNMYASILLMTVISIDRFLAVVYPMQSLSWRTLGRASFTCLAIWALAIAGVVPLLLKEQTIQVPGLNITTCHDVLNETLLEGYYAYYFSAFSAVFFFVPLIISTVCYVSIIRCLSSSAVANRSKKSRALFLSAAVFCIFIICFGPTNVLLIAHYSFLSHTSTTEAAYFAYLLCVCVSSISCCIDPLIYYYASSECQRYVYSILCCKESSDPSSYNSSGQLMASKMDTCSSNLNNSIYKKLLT
Format: cell-based. To be noted: 40 unit/ml thrombin; modulators 10 μM. An outline of the steps:
(§1)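 A431 cells at passage 3-5 grown in DMEM/10% FBS at 37° C, 5% CO2 to ~95% confluency (~2-4 days). Compounds and PAR agonists prepared in 1×HBSS to match the refractive index of the cell medium for dynamic mass redistribution (DMR) read-out.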

The test system of assay [3] is protease activated receptors PAR1 and PAR2. The class given is cell-based, human. An outline of the steps: as §1
A further assay has as its system trypsin. Briefly: BAEE hydrolysis assay. Format: biochemical.
Assay [4] relates to EGF-induced response of quiescent A431 cells. The experiment in a line: Effect of compound pretreatment on EGF-induced DMR response. The class given is cell-based, human. Conditions: quiescent A431 cells; 32 nM EGF. An outline of the steps: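 A431 cells were made quiescent by ≥16 h culture in no or ~0.1% FBS medium. After two HBSS/20 mM HEPES pH 7.4 buffer additions ≥15 min apart, compound was added and then stimulus. Real-time dynamic mass redistribution was tracked by resonant waveguide biosensor with angular interrogation.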

The target of the next assay is A2A receptor. To be noted: read-out: Affinity; cited from earlier work.
A further assay concerns the target adenosine receptors. To be noted: read-out: Apparent EC50 (slowly increased P-DMR, Gs-type).
Assay [5] has as its target T3, Bombesin receptor subtype 1 (BRS1) (Homo sapiens, UniProt P28336).
T3 construct: previously reported to endogenously express in A431 cells; endogenous in cells; host or cells: A431
Briefly: Fluo-3 Ca2+ mobilization assay. The class given is cell-based. Conditions: n=5.
Procedure: A431 at passage 3 to 5 were grown in Costar™ 96 well clear cell culture microplates until ˜95% confluency, washed twice and starved overnight with the DMEM only, washed with 1×HBSS (1× regular Hank's balanced salt solution, 20 mM HEPES buffer, pH 7.0) in the presence of 2.5 mM probenicid, and labeled in the same buffer containing 4 μM Fluo-3 for 1 hour at room temperature. The cells were then washed twice with buffer, maintained with 100 μl 1×HBSS containing 2.5 mM probenicid. The assay was initiated by transferring 100 μl GPCR agonist solution to the cell plate, and calcium signal was recorded over 6 minutes with a 6 sec interval using HTS7000 BioAssay Reader (PerkinElmer Life Science, Boston, Mass.). The assays were carried out at room temperature in order to allow direct comparison with optical sensing data.

Another assay has as its target T4, β2 adrenergic receptor (Homo sapiens, UniProt P07550).
T4 construct: A431 endogenously expresses high numbers of β2 receptor; endogenous in cells; host or cells: A431
Briefly: DMR optical biosensor assay, agonist efficacy. Format: cell-based. Conditions: 10 μM pretreatment; 25 nM epinephrine.

The test system of a further assay is quiescent A431 cells. The experiment in a line: mβCD-induced response (cholesterol effluxing) on LID sensor. To be noted: 20 nM EGF or 1000 nM H7; pretreated at least 40 minutes. The class given is cell-based, human. The source says:
The disclosed methods can be used to assay cholesterol transport and to, for example, screen for molecules that effect cholesterol transport, such as effluxing and uptake. […] This method is based on the measurement in real time of the effect of compounds on cholesterol effluxing. Depletion of cholesterol content on cell surface or intracellular pool results in the disappearance of microvilli located in the cell surface, resulting in the flatness of cells adherent on a surface. The flatness of cells leads to a positive DMR phase with increased signal. Based on this biological effect, we use reagents, as markers, that can either extract cholesterol from the cell surface (e.g., methyl-beta-cyclodextrin (mβCD), or high density lipoproteins (HDLs)), or bind or sequester cholesterol on the cell surface (e.g., saponin at relatively low concentrations). The changes obtained using optical biosensors can be used as an indicator of modulators that interfere with the cholesterol effuxing. FIG. 27 provides a schematic of a cholesterol pathway.

A further assay relates to CHO cells. Briefly: EGF stimulation of CHO cells on optical biosensor (DMR). Format: cell-based, Chinese hamster. To be noted: CHO cells incubated with EGF. Here is the method:
(§2) Both A431 and CHO-K1 cells were grown in Dulbecco's modified Eagle's medium (DMEM) supplemented with 10% fetal calf serum, 100 μg/ml penicillin, and 100 μg/ml streptomycin. For cell culture, certain numbers of cells (2×10^5 to 1×10^6), either A431 or CHO-K1, were suspended in […] medium were placed in each well of a 96 well Corning Epic Biosensor microplate, and were cultured at 37° C. in air/5% CO2 for certain time until the cell density reached ˜90% and above (unless specified). The resulted cells were termed as “profilerating” cells. The “quiescent” cells were obtained by culturing the profilerating cells of desired confluencies with a medium containing no or little (˜0.1% fetal bovine serum (FBS)) for at least 16 hours.
The cells, either proliferating or quiescent cells, were either directly used for assays or washed once with the corresponding medium (both result in no obvious difference in cell responses). During the assays, the cells in 100 μl medium were subject to two 25 μl HBSS buffer containing 20 mM HEPES, pH 7.4, each separated by at least 15 minutes before 50 μl stimulus-containing solution was applied. During all these steps, a parallel angular interrogation system was used to monitor the real time kinetics of cellular responses. […]

A further assay has as its target T5, EGFR (Homo sapiens, UniProt P00533).
T5 construct: endogenously over-expressed EGFRs; endogenous in cells; host or cells: A431 (American Type Cell Culture)
Briefly: EGF-induced DMR response of A431 cells on RWG optical biosensor. Format: cell-based. Conditions: quiescent A431 cells. As for the experimental part: as §2
During the assays, the cells in 100 μl medium were subject to two 25 μl HBSS buffer containing 20 mM HEPES, pH 7.4, each separated by at least 15 minutes before 50 μl stimulus-containing solution was applied. […] For compound effect studies, a modified protocol was used which starts with 50 μl medium, and subject to sequential treatment: 25 μl HBSS buffer twice (each separated by at least 15 minutes), 50 μl compound solution and finally 50 μl stimulus-containing solution.

Assay [6] has as its system protease activated receptors PAR1 and PAR2. Briefly: Fluo-3 Ca2+ mobilization assay with PAR agonists. The class given is cell-based, human. Conditions: EGF 100 nM; trypsin 100 nM. Here is the method: A431 at passage 3 to 5 were grown in Costar™ 96 well clear cell culture microplates until ˜95% confluency, washed twice and starved overnight with the DMEM only, washed with 1×HBSS (1× regular Hank's balanced salt solution, 20 mM HEPES buffer, pH 7.0) in the presence of 2.5 mM probenicid, and labeled in the same buffer containing 4 μM Fluo-3 for 1 hour at room temperature. The cells were then washed twice with buffer, maintained with 100 μl 1×HBSS containing 2.5 mM probenicid. The assay was initiated by transferring 50 μl PAR agonist solution to the cell plate, and calcium signal was recorded over 6 minutes with a 6 sec interval using HTS7000 BioAssay Reader (PerkinElmer Life Science, Boston, Mass.). The assays were carried out at room temperature in order to allow direct comparison with optical sensing data.
Background: A change in cytosolic calcium serves as a functional read-out for many receptors and channels.

Another assay concerns the target MC receptors. Briefly: DMR optical biosensor assay, agonist efficacy. Format: cell-based, human. To be noted: quiescent A431; n=3; read-out: Apparent EC50 (total responses of two P-DMR events).

Here are results for eight compounds from US8852876B2, “Label free biosensors and cells” (Corning Incorporated, priority 2008, dated 2014).

T3 sequence (P28336 whole entry): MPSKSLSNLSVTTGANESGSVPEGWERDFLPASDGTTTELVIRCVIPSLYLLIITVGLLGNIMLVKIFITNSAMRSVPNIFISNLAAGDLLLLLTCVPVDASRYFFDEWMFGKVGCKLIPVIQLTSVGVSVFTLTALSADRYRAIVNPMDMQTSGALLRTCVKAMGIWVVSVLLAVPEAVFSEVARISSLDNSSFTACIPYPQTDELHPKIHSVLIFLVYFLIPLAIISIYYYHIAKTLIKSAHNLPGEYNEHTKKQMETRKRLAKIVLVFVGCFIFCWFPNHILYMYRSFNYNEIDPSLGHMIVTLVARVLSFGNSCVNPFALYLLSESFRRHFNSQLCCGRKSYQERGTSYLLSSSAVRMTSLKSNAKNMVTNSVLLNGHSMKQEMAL
Source text for MC receptors: (§3) A Corning® Epic™ angular interrogation system with transverse magnetic or p-polarized TM0 mode was used for all studies. […] First, to minimize the bulk index changes when a compound solution is introduced, 1×HBSS buffer without any probenecid was used to dilute all the compounds, whereas the DMEM buffer only was used to starve the cells. Secondly, to facilitate the cell responses as well as to rapidly reach a steady state when the sensor plates having cells were placed in the system at room temperature, the cells were pre-starved with the DMEM buffer without any FBS for a prolonged period of time (typically 20±2 hours), and the quiescent cells were directly used for assays without any wash.
(§4) For kinetics measurements, the cultured cells (˜95% confluency) were starved for about 20 hours with DMEM alone at 37° C. under air/5% CO2. Afterwards, the sensor microplate containing cells was placed into the optical system, and the cell responses were recorded before and after addition of a solution at room temperature. […]
(§5) Next, the efficacies of these agonists that result in significant DMR signals were examined. […] The amplitudes of DMR signals were plotted as a function of agonist concentration, and analyzed with Prism to calculate the EC50.
Source text for P2Y receptors: as §3, §4, §5
Source text for adenosine receptors: as §3, §4, §5
Source text for β2 adrenergic receptor: as §3, §4, §5

For `NCCNC(=O)Cc1ccc(NC(=O)Cc2ccc(Nc3ncnc4c3ncn4[C@@H]3O[C@H](CO)[C@@H](O)[C@H]3O)cc2)cc1` [ADAC, adenosine amine cogener], the Ki on A3 receptor was 285 nM.

Turning to `Nc1ncnc2c1ncn2[C@@H]1O[C@H](COP(=O)(O)OP(=O)(O)OP(=O)(O)O)[C@@H](O)[C@H]1O` [ATP], in the assay on P2Y receptors, the EC50 turned out to be 2200 ± 600 nM. In [1], the “Class of optical signature (DMR) induced by agonist” value (from here on “Class of optical signature”) is recorded as “first class of optical signatures”.

For `CN([C@@H](Cc1ccc(OS(=O)(=O)c2cccc3cnccc23)cc1)C(=O)N1CCN(c2ccccc2)CC1)S(=O)(=O)c1cccc2cnccc12` [KN 62], in [2], the “Effect of pretreatment on thrombin-mediated DMR signal” value was “slightly suppressed the thrombin-mediated DMR signal”. The “Effect of pretreatment on trypsin-mediated DMR signal” value in assay [3] (100 or 200 nM trypsin, modulators 10 μM) is on record as “almost completely abolished the trypsin-mediated DMR signal”. Also, in the assay with trypsin, the “Effect on trypsin activity” value is reported as “no any obvious effect on the trypsin activity”. Also, the “Effect of pretreatment on 32 nM EGF-induced response” value in assay [4] is on record as “little effect on the response”.

As for `CCNC(=O)[C@H]1O[C@@H](n2cnc3c(N)ncnc32)[C@H](O)[C@@H]1O` [NECA], the Ki on A2A receptor was […]. For the same compound, the EC50 on adenosine receptors is 21.5 ± 1.2 nM. For the same compound, the “Class of optical signature” value in assay [1] is reported as “second class of optical signatures”.

On to `CSCC[C@H](NC(=O)[C@H](CC(C)C)NC(=O)[C@H](Cc1cnc[nH]1)NC(=O)CNC(=O)[C@@H](NC(=O)[C@H](C)NC(=O)[C@H](Cc1c[nH]c2ccccc12)NC(=O)[C@H](CCC(N)=O)NC(=O)[C@H](CC(N)=O)NC(=O)CNC(=O)[C@H](CC(C)C)NC(=O)[C@H](CCCN=C(N)N)NC(=O)[C@H](CCC(N)=O)NC(=O)[C@@H]1CCC(=O)N1)C(C)C)C(N)=O` [bombesin], for which, in assay [5], the “Maximum increase in intracellular Ca2+ level” value is given as 20±5%.

As to NKH447, the “Effect of pretreatment on epinephrine-mediated DMR response” value at β2 adrenergic receptor is listed as “completely abolished the DMR responses mediated by epinephrine”. Further, the “Class of optical signature” value in assay [1] is listed as “an optical signature that is similar to those induced by either β2 or A2 agonists”.

Take epidermal growth factor [EGF]: in the assay with quiescent A431 cells, the “Effect of pretreatment on mβCD-induced response” value is on record as “significantly suppressed the mβCD-induced response”. For the same compound, the “Effect of preceding stimulation on DMR responses mediated by trypsin or thrombin” value in [3] (EGF 100 nM, 100 nM trypsin, 40 unit/ml thrombin) is listed as “totally blocked the N-DMR event, but only attenuated the P-DMR event”. The “DMR signals induced by EGF” value in the assay on CHO cells is given as “no clear P-DMR nor B-DMR signal”. Moreover, the Kd with EGFR (non-linear regression, read-out: Kd from one-phase decay constant K of the N-DMR signal) amounted to 5.76 nM. Further, the EC50 with EGFR (read-out: EC50 from amplitudes of the N-DMR signals vs EGF concentration) was about 1.45 nM. Also, in assay [6], the “Effect of preceding stimulation on trypsin-mediated [Ca2+]i elevation” value was “little effect on the [Ca^2+]i elevation mediated by trypsin”.

On to “α-melanocyte stimulating hormone [α-MSH]”, for which, at MC receptors, the EC50 is 9 ± 1.6 nM. Besides, in assay [1], the “Class of optical signature” value is “third class of optical signatures”.

In general, Kd refers to a measure of binding affinity in units of concentration.
